The values below come from the SangsterLogP compilation.

This data set is described as follows: method code SF, from DOI: 10.1016/0223-5234(90)90141-o. As to conditions: pH 7.4.
As to `COc1cc(S(C)=O)ccc1-c1nc2cnncc2[nH]1` (stereo unspecified), the logD (commonly lipophilicity at a set pH, counting ionised and neutral species) stood at 0.39. The result for `COc1ccc(-c2nc3cnccc3o2)c(OC)c1` reads 2.42; that for `COc1cc(S(C)=O)ccc1-c1nc2cnccc2s1` (stereo unspecified), 2.21. On to `COc1cc(S(C)=O)ccc1-c1nc2cnccc2[nH]1` (stereo unspecified), for which the logD is 1.23. `COc1cc(S(C)=O)ccc1-c1nc2nnccc2[nH]1` (stereo unspecified) came in with a logD of 0.23.

The molecule `COc1ccc(-c2nc3cnccc3n2C)c(OC)c1` yielded a logD of 2.66. `COc1cccc(OC)c1-c1nc2cnccc2[nH]1` came in with a logD of 1.66. `COc1ccc(-c2nc3ccncc3n2C)c(OC)c1` returned a logD of 2.68. `COc1cc(S(C)=O)ccc1-c1nc2cnccc2n1C` (stereo unspecified) showed a logD of 2.15. Regarding `COc1cc(S(C)=O)ccc1-c1nc2ncncc2[nH]1` (stereo unspecified), the logD came to 0.53. Regarding `COc1cc(S(C)=O)ccc1-c1nc2nccnc2[nH]1` (stereo unspecified), the logD is 0.66.
